What was measured:
Format in all cases: biochemical
[1] = target: T1, Tau protein (wild-type K18) (Homo sapiens, UniProt P10636); test: Tau protein aggregation inhibition test (thioflavin T assay); conditions: heparin/DTT-induced aggregation, 37° C. 5 days, ThT fluorescence vs tau-only control = 100%
T1 construct: Tau protein (wild-type K18)
Method: Tau protein (wild-type K18) was dissolved in phosphate-buffered saline (PBS, pH 7.4) at a concentration of 1 mg/mL to prepare a tau protein solution. In order to induce aggregation of tau proteins, 0.1 mg/mL of heparin and 100 μM dithiothreitol (DTT) were added to 1 mg/mL of the tau protein solution, followed by incubation at 37° C. for 5 days. At this time, the result was mixed with each test compound (50, 500 μM) such that the final concentration reached 0.5 mg/mL, followed by further incubation.
The inhibitory effect of each compound against tau aggregation was measured based on the intensity of fluorescence by thioflavin T (ThT) assay (see Example 2). More specifically, 25 μL of the reaction solution was charged in each well of a 96-well plate for fluorescence analysis, and 75 μL of the prepared thioflavin-T solution was then charged in each well. The reaction was allowed to proceed at room temperature in a dark laboratory for 5 minutes, and then fluorescence values were measured at an excitation wavelength of 450 nm and an emission wavelength of 485 nm using a multi-mode microplate reader.
The ratio of the fluorescence value measured in the group obtained by treating with each test compound to 100% of the fluorescence value of the group (control group) obtained by treating only with tau proteins and inducing aggregation for 5 days is set forth in Table 5 below: […]

[2] = target: T2, aggregated tau protein (wild-type K18) (Homo sapiens, UniProt P10636); test: Tau protein aggregate degradation test (thioflavin T assay); conditions: pre-aggregated tau, further 5 days at 37° C., ThT fluorescence vs control = 100%
T2 construct: Tau protein (wild-type K18)
T2 sequence (P10636 561-685 limits assumed): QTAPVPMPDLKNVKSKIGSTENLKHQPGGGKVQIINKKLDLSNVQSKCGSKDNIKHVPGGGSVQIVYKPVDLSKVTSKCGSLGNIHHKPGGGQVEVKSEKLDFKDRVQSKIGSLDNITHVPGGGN
Method: Tau protein (wild-type K18) was dissolved in phosphate-buffered saline (PBS, pH 7.4) at a concentration of 1 mg/mL to prepare a tau protein solution. 0.1 mg/mL of heparin and 100 μM dithiothreitol (DTT) were added to 1 mg/mL of the tau protein solution, followed by incubation at 37° C. for 5 days to induce tau protein aggregation. The aggregated tau protein was mixed with each test compound in an amount of 50 or 500 μM such that the final concentration reached 0.5 mg/mL, followed by further incubation at 37° C. for 5 days to induce reaction.
The degradation effect of each compound on the tau aggregates was measured by thioflavin T (ThT) assay (see Example 2). More specifically, 25 μL of the reaction solution was charged in each well of a 96-well plate for fluorescence analysis and 75 μL of the prepared thioflavin-T solution was charged in each well. The reaction was allowed to proceed at room temperature in a dark laboratory for 5 minutes and then fluorescence values were measured at an excitation wavelength of 450 nm and an emission wavelength of 485 nm using a multi-mode microplate reader.
The ratio of the fluorescence value measured in the group obtained by treating with each test compound to 100% of the fluorescence value of the group (control group) obtained by treating only with tau proteins and inducing aggregation for 5 days is set forth in Table 6 below: […]

[3] = target: T3, aggregated beta-amyloid; human Aβ 1-42 (UniProtKB-P05067, a.a. 672-713) (Homo sapiens, UniProt P05067); test: Beta-amyloid aggregate degradation test (thioflavin T assay); conditions: pre-aggregated Aβ, further 3 days at 37° C., ThT fluorescence vs control = 100%
T3 construct: UniProtKB-P05067, a.a; 672-713
T3 sequence (P05067 672-713): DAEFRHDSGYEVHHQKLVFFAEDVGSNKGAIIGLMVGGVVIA
Method: Aβ (beta-amyloid; human A3 1-42 monomer (UniProtKB-P05067, a.a. 672-713)) was dissolved at a concentration of 10 mM in dimethyl sulfoxide (DMSO), and the resulting solution was diluted to 250 μM using distilled water, and then incubated at 37° C. for 3 days to induce aggregation. The aggregated beta-amyloid was added with each test compound in an amount of 50 or 500 μM such that the final concentration reached 25 μM, and was further cultured at 37° C. for 3 days to induce reaction. The aggregate degradation effect of each test compound was measured by thioflavin T (ThT) assay (see Example 2). Specifically, 25 μL of the reaction solution was charged in each well of a 96-well plate for fluorescence analysis and 75 μL of the prepared thioflavin-T solution was charged in each well. The reaction was allowed to proceed at room temperature in a dark laboratory for 5 minutes and then fluorescence values were measured at an excitation wavelength of 450 nm and an emission wavelength of 485 nm using a multi-mode microplate reader. The ratio of the fluorescence value measured in the group obtained by treating with each test compound to 100% of the fluorescence value of the group (control group) obtained by treating only with beta-amyloids and inducing aggregation for 3 days is set forth in Table 4 below: […]

T1 sequence (P10636 561-685 limits assumed): as the sequence (P10636 561-685 limits assumed) above

SMILES | Tau aggregation remaining (ThT fluorescence, % of tau-only control) ([1]; 50 uM test compound) | Tau aggregation remaining (ThT fluorescence, % of tau-only control) ([1]; 500 uM test compound) | ThT fluorescence remaining (% of control) ([2]; 50 uM test compound) | ThT fluorescence remaining (% of control) ([2]; 500 uM test compound) | Beta-amyloid aggregate degradation activity (% of control) ([3]; 50 uM test compound) | Beta-amyloid aggregate degradation activity (% of control) ([3]; 500 uM test compound)
CCN1C(=O)/C(=C/c2c[nH]c3ccncc23)SC1=S [DN205780, (Z)-5-((1H-pyrrolo[3,2-c]pyridin-3-yl)methylene)-3-ethyl-2-thioxothiazolidin-4-one] | 69.83 % of control | 33.02 % of control | 27.50 % of control | 10.84 % of control | 51.31 % of control | 35.73 % of control
O=C1NC(=S)S/C1=C\c1c[nH]c2ccccc12 [DN204296, (Z)-5-((1H-indol-3-yl)methylene)-2-thioxothiazolidin-4-one] | 13.243 % of control | 4.984 % of control | 30.26 % of control | 16.48 % of control | 68.90 % of control | 17.28 % of control
CCN1C(=O)C(Cc2ccc3occc3c2)NC1=S (stereo not shown) [DN205353, 5-(benzofnran-5-ylmethyl)-3-ethyl-2-thioxoimidazolidin-4-one] | 61.551 % of control | 66.948 % of control | 66.25 % of control | 80.59 % of control | – | 90.19 % of control
O=C1NC(=S)S/C1=C\c1ccsc1 [DN204299, (Z)-5-(thiophen-3-ylmethylene)-2-thioxothiazolidin-4-one] | 60.521 % of control | 33.932 % of control | 72.21 % of control | 45.09 % of control | – | 80.07 % of control
CCN1C(=O)/C(=C/c2ccoc2)NC1=S [DN204814, (Z)-3-ethyl-5-(furan-3-ylmethylene)-2-thioxoimidazolidin-4-one] | – | 28.47 % of control | 30.07 % of control | −22.72 % of control | 58.02 % of control | −40.60 % of control
CCN1C(=O)/C(=C/c2c[nH]c3ncccc23)NC1=S [DN204816, (Z)-5-((1H-pyrrolo[2,3-b]pyridin-3-yl)methylene)-3-ethyl-2-thioxoimidazolidin-4-one] | 81.42 % of control | 56.3 % of control | 40.39 % of control | 33.92 % of control | – | 92.41 % of control
O=C1NC(=S)SC1Cc1c[nH]c2ncccc12 (stereo not shown) [DN204304, 5-((1H-pyrrolo[2,3-b]pyridin-3-yl)methyl)-2-thioxothiazolidin-4-one] | 70.66 % of control | 39.54 % of control | 67.53 % of control | 50.23 % of control | 97.47 % of control | 73.11 % of control
O=C1NC(=S)S/C1=C\c1c[nH]c2ncccc12 [DN205355, (Z)-5-((1H-pyrrolo[2,3-b]pyridin-3-yl)methylene)-2-thioxothiazolidin-4-one] | 40.038 % of control | 25.883 % of control | 49.41 % of control | 30.65 % of control | 93.80 % of control | 44.61 % of control
CCN1C(=O)/C(=C/c2c[nH]c3cccnc23)NC1=S [DN204817, (Z)-5-((1H-pyrrolo[3,2-b]pyridin-3-yl)methylene)-3-ethyl-2-thioxoimidazolidin-4-one] | 87.3 % of control | 66.18 % of control | 49.84 % of control | 43.06 % of control | – | 78.39 % of control
O=C1NC(=S)S/C1=C\c1ccoc1 [DN204298, (Z)-5-(furan-3-ylmethylene)-2-thioxothiazolidin-4-one] | 71.163 % of control | 33.817 % of control | 61.36 % of control | 29.73 % of control | 59.37 % of control | 7.79 % of control
CCN1C(=O)/C(=C/c2c[nH]c3cccnc23)SC1=S [DN205781, (Z)-5-((1H-pyrrolo[3,2-b]pyridin-3-yl)methylene)-3-ethyl-2-thioxothiazolidin-4-one] | 74.46 % of control | 52.99 % of control | 28.74 % of control | 23.79 % of control | 85.76 % of control | 55.35 % of control

From patent publication US20230129364A1, “PYRROLIDINE DERIVATIVE, AND PHARMACEUTICAL COMPOSITION FOR PREVENTING OR TREATING BETA-AMYLOID OR TAU PROTEIN-ASSOCIATED DISEASES CONTAINING SAME” (YONSEI UNIVERSITY, UNIVERSITY - INDUSTRY FOUNDATION (UIF), priority 2019, published 2023)
